Experimental data as given in patent publication US7855205B2, “Pyrimidinyl substituted fused-pyrrolyl compounds useful in treating kinase disorders” (Janssen Pharmaceutica NV, priority 2004, dated 2010).

What was measured:
CDK1:Cyclin-B = target: T1, CDK1:Cyclin-B (Homo sapiens, UniProt P06493); assay: CDK1 Screening Assay; format: biochemical; conditions: 33P-γ-ATP incorporation, 10 μM ATP
T1 construct: purchased New England Biolabs, Beverly, Mass; 6020; host or cells: insect cells
Method in brief: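 Human CDK1/cyclin B co-expressed in insect cells (30 ng/well) in 50 mM Tris pH 8, 10 mM MgCl2, with 10 μM ATP, 33P-γ-ATP and 0.025 μM biotinylated histone H1 peptide (reaction-mix levels); 1% DMSO final. 1 h at 30° C. 33P incorporation into streptavidin-captured peptide by scintillation counting.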

A375 malignant melanoma = assay: Inhibition of cell proliferation (14C-thymidine incorporation), A375; format: cell-based, human; conditions: Homo sapiens, A-375
Method in brief: (§1)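 Cells (3000-8000/well) grown 24 h at 37° C, 5% CO2, then given compound in DMSO for 24 h before adding methyl 14C-thymidine (0.2 uCi/well) for a further 24 h with drug. After PBS washes, incorporation into DNA counted by scintillation.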

Aurora-A = target: T2, Aurora-A (Mus musculus, UniProt P97477); assay: Aurora-A Screening Assay; format: biochemical, murine; conditions: 33P-γ-ATP incorporation, 10 μM ATP
T2 construct: made in house; host or cells: sf9 insect cells
T2 sequence (P97477 1-395): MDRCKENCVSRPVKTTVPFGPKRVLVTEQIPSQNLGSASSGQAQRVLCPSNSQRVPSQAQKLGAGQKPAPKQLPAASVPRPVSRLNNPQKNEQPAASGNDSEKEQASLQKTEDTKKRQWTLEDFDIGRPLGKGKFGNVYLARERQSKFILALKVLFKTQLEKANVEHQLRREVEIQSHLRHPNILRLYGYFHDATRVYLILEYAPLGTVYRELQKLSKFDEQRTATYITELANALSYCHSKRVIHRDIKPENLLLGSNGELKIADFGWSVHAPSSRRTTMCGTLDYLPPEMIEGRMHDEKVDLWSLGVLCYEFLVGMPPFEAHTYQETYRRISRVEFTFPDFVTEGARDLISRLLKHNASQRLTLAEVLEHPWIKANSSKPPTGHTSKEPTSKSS

VEGF-R2 = target: T3, VEGF-R2 (Rattus norvegicus, UniProt O08775); assay: VEGF-R2 Screening Assay; format: biochemical; conditions: 33P-γ-ATP incorporation, 10 μM ATP
T3 construct: polyhistidine (N)
Method in brief: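 The N-terminally His-tagged rat VEGF-R2 kinase domain (aa 786-1343), diluted in 50 mM Tris-HCl pH 8.0 with 0.1% BSA, phosphorylated a biotinylated histone-H1 peptide with 33P-γ-ATP on Flashplates for 1 h at 30 °C in 1% DMSO. After washes with EDTA/PBS, immobilized 33P was counted by scintillation.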

HCT-116 colon carcinoma = assay: Inhibition of cell proliferation (14C-thymidine incorporation), HCT-116; format: cell-based; conditions: Homo sapiens, HCT-116, HCT116
Method in brief: as §1

RET = target: T4, RET (Homo sapiens, UniProt P07949); assay: RET Kinase Screening Assay; format: biochemical; conditions: 33P-γ-ATP incorporation, 10 μM ATP
T4 construct: the RET cytoplasmic domain consisting of the last 492 amino acids of the intracellular domain of the RET tyrosine kinase; histidine tag (N); made in house; host or cells: Hi5 insect cells
T4 sequence (P07949 658-1114 limits assumed): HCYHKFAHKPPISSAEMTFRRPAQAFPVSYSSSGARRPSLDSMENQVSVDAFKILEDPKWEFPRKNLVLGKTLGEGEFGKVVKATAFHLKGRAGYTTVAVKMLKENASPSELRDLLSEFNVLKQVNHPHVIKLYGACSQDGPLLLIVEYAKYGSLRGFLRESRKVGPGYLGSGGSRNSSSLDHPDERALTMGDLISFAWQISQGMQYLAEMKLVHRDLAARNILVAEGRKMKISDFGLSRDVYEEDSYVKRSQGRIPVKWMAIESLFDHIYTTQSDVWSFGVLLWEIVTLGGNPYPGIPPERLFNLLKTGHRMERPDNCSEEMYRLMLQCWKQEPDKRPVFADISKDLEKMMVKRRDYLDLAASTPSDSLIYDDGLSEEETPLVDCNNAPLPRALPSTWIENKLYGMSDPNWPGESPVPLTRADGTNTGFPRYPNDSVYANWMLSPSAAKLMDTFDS

[1] = system: HeLa cervical adenocarcinoma; assay: Inhibition of cell proliferation (14C-thymidine incorporation), HeLa; format: cell-based; conditions: Homo sapiens;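 also: HeLa cells in 96-well scintillating plates, compound for 24 h then 24 h more with 14C-thymidine, counting label built into new DNA against DMSO-only control wells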

T1 sequence (P06493 whole entry): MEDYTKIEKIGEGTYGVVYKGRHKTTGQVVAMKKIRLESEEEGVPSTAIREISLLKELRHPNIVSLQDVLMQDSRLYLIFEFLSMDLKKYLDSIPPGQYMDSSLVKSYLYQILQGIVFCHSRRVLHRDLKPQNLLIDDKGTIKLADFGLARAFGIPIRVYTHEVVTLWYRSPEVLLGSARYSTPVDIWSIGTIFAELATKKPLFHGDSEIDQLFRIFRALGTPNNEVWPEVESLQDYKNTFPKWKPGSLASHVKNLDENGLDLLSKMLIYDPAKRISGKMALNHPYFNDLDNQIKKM
T1 sequence (P14635 whole entry partner): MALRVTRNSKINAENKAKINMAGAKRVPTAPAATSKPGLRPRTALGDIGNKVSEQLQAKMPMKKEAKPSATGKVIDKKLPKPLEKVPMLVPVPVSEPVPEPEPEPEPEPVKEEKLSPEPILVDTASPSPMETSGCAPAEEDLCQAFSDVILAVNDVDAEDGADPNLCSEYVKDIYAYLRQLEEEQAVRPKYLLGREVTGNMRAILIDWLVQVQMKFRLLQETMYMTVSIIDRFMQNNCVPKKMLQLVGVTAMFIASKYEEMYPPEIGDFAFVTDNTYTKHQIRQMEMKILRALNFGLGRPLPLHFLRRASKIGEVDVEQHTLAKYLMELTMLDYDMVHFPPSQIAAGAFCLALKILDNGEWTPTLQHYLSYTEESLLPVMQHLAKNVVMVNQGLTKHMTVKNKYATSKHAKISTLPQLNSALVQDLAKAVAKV
T3 sequence (O08775 786-1343): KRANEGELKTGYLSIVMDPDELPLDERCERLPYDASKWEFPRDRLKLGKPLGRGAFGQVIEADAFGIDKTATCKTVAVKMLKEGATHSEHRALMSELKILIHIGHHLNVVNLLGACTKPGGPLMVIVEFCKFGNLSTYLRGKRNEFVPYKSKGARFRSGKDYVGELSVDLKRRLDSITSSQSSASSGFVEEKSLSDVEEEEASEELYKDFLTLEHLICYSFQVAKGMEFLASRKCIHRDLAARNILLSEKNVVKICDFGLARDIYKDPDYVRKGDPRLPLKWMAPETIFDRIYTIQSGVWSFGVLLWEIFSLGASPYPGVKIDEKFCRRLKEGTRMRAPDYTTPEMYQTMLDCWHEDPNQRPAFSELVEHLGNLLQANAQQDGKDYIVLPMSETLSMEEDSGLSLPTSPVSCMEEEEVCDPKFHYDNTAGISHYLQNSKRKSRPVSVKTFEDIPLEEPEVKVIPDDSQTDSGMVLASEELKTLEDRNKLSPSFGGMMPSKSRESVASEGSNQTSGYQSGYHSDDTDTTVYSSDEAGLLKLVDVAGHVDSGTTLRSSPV

SMILES	IC50 (CDK1:Cyclin-B)	IC50 (A375 malignant melanoma)	IC50 (Aurora-A)	IC50 (VEGF-R2)	IC50 (HCT-116 colon carcinoma)	IC50 (RET)	IC50 [1]
COc1ccc(Nc2nccc(-c3c[nH]c4ncccc34)n2)cc1 [Cpd 5, (4-Methoxy-phenyl)-[4-(1H-pyrrolo[2,3-b]pyridin-3-yl)-pyrimidin-2-yl]-amine]	0.011 µM	0.05 µM	0.134 µM	0.238 µM	0.034 µM	1.14 µM	0.059 µM
COc1cccc(Nc2nccc(-c3c[nH]c4ncccc34)n2)c1 [Cpd 6, (3-Methoxy-phenyl)-[4-(1H-pyrrolo[2,3-b]pyridin-3-yl)-pyrimidin-2-yl]-amine]	0.119 µM	0.95 µM	0.1 µM	0.14 µM	0.72 µM	~1 µM	1.46 µM
COc1ccccc1Nc1nccc(-c2c[nH]c3ncccc23)n1 [Cpd 7, (2-Methoxy-phenyl)-[4-(1H-pyrrolo[2,3-b]pyridin-3-yl)-pyrimidin-2-yl]-amine]	0.044 µM	0.35 µM	0.497 µM	0.82 µM	0.29 µM	> 10 µM	0.35 µM
Cc1ccc(Nc2nccc(-c3c[nH]c4ncccc34)n2)cc1 [Cpd 10, [4-(1H-Pyrrolo[2,3-b]pyridin-3-yl)-pyrimidin-2-yl]-p-tolyl-amine]	0.04 µM	0.25 µM	0.29 µM	0.2 µM	0.23 µM	~10 µM	0.22 µM
Clc1ccc(Nc2nccc(-c3c[nH]c4ncccc34)n2)cc1 [Cpd 11, (4-Chloro-phenyl)-[4-(1-H-pyrrolo[2,3-b]pyridin-3-yl)-pyrimidin-2-yl]-amine]	0.0696 µM	0.97 µM	~1 µM	~1 µM	0.56 µM	> 10 µM	1.01 µM
Cc1cccc(C)c1Nc1nccc(-c2c[nH]c3ncccc23)n1 [Cpd 35, (2,6-Dimethylphenyl)-[4-(1H-pyrrolo[2,3-b]pyridin-3-yl)-pyrimidin-2-yl]-amine]	0.017 µM	0.0369 µM	0.556 µM	0.975 µM	0.0331 µM	1 µM	0.0903 µM
Nc1ccc(Nc2nccc(-c3c[nH]c4ncccc34)n2)cc1 [Cpd 37, (4-Aminophenyl)-[4-(1H-pyrrolo[2,3-b]pyridin-3-yl)-pyrimidin-2-yl]-amine]	0.035 µM	0.185 µM	0.386 µM	0.211 µM	0.0828 µM	1.62 µM	0.194 µM
CCOc1ccc(Nc2nccc(-c3c[nH]c4ncccc34)n2)cc1 [Cpd 40, (4-Ethoxyphenyl)-[4-(1H-pyrrolo[2,3-b]pyridin-3-yl)-pyrimidin-2-yl]-amine]	0.01 µM	0.0565 µM	0.084 µM	0.149 µM	0.0244 µM	1 µM	0.0662 µM
CNCCc1ccc(Nc2nccc(-c3c[nH]c4ncccc34)n2)c(Cl)c1 [Cpd 53]	0.0441 µM	0.0913 µM	0.408 µM	1.31 µM	0.127 µM	2.36 µM	0.123 µM
CN(C)CCc1ccc(Nc2nccc(-c3c[nH]c4ncccc34)n2)c(Cl)c1 [Cpd 54]	0.0612 µM	0.215 µM	0.908 µM	2.31 µM	0.269 µM	4.06 µM	0.281 µM
CN1CCN(CCc2ccc(Nc3nccc(-c4c[nH]c5ncccc45)n3)c(Cl)c2)CC1 [Cpd 55, {2-Chloro-4-[2-(4-methylpiperizin-1-yl)ethyl]phenyl}-[4-(1H-pyrrolo[2,3-b]pyridin-3-yl)-pyrimidin-2-yl]-amine]	0.0408 µM	0.233 µM	0.785 µM	0.342 µM	0.264 µM	1.15 µM	0.292 µM
Clc1cc(CCN2CCOCC2)ccc1Nc1nccc(-c2c[nH]c3ncccc23)n1 [Cpd 56, {2-Chloro-4-[2-(morpholin-4-yl)ethyl]phenyl}-[4-(1H-pyrrolo[2,3-b]pyridin-3-yl)-pyrimidin-2-yl]-amine]	0.105 µM	0.727 µM	0.859 µM	1.04 µM	0.774 µM	1.24 µM	1.1 µM
c1cnc2[nH]cc(-c3ccnc(NC4CCNCC4)n3)c2c1 [Cpd 65, Piperidin-4-yl-[4-(1H-pyrrolo[2,3-b]pyridin-3-yl)pyrimidin-2-yl]-amine]	0.0603 µM	0.0218 µM	1.3 µM	1.07 µM	0.015 µM	1.23 µM	0.0269 µM

Now those with a lower IC50 (CDK1:Cyclin-B), led by results:

IC50 (CDK1:Cyclin-B)	IC50 (A375 malignant melanoma)	IC50 (Aurora-A)	IC50 (VEGF-R2)	IC50 (HCT-116 colon carcinoma)	IC50 (RET)	IC50 [1]	SMILES
0.0092 µM	0.1 µM	0.287 µM	0.878 µM	0.16 µM	> 10 µM	0.14 µM	Clc1ccccc1Nc1nccc(-c2c[nH]c3ncccc23)n1 [Cpd 12, (2-Chloro-phenyl)-[4-(1H-pyrrolo[2,3-b]pyridin-3-yl)-pyrimidin-2-yl]-amine]
0.0096 µM	0.0494 µM	0.112 µM	0.081 µM	0.0216 µM	0.821 µM	0.0358 µM	CN(C)c1ccc(Nc2nccc(-c3c[nH]c4ncccc34)n2)cc1 [Cpd 38, (4-Dimethylaminophenyl)-[4-(1H-pyrrolo[2,3-b]pyridin-3-yl)-pyrimidin-2-yl]-amine]
0.00095 µM	0.00167 µM	0.317 µM	0.583 µM	0.0022 µM	1.54 µM	0.00337 µM	CNCCc1ccc(Nc2nccc(-c3c[nH]c4ncccc34)n2)c(C)c1 [Cpd 45]
0.0014 µM	0.00288 µM	0.972 µM	0.882 µM	0.00292 µM	1.4 µM	0.00302 µM	CCN(CC)CCc1ccc(Nc2nccc(-c3c[nH]c4ncccc34)n2)c(C)c1 [Cpd 47]
0.00196 µM	0.00282 µM	0.333 µM	0.75 µM	0.00294 µM	2.28 µM	0.00252 µM	Cc1cc(CCN2CCOCC2)ccc1Nc1nccc(-c2c[nH]c3ncccc23)n1 [Cpd 49, {4-[2-(Morpholin-4-yl)ethyl]-2-methylphenyl}-[4-(1H-pyrrolo[2,3-b]pyridin-3-yl)-pyrimidin-2-yl]-amine]
0.0011 µM	0.00284 µM	0.902 µM	0.959 µM	0.00283 µM	3.07 µM	0.00268 µM	Cc1cc(CCN2CCCCC2)ccc1Nc1nccc(-c2c[nH]c3ncccc23)n1 [Cpd 50, {4-[2-(Piperidin-1-yl)ethyl]-2-methylphenyl}-[4-(1H-pyrrolo[2,3-b]pyridin-3-yl)-pyrimidin-2-yl]-amine]
0.0087 µM	0.134 µM	0.0757 µM	0.322 µM	0.121 µM	0.54 µM	0.162 µM	OCCc1ccc(Nc2nccc(-c3c[nH]c4ncccc34)n2)c(Cl)c1 [Cpd 52]
0.000764 µM	0.00858 µM	0.119 µM	0.927 µM	0.00492 µM	4.82 µM	0.0059 µM	Cc1cc(O)ccc1Nc1nccc(-c2c[nH]c3ncccc23)n1 [Cpd 79, 3-Methyl-4-[4-(1H-pyrrolo[2,3-b]pyridin-3-yl)-pyrimidin-2-ylamino]-phenol]
